Test [1] concerns LPM in the peritoneal cavity. The test can be described thus: Numbers of LPM in the peritoneal cavity after i.p. injection. As to conditions: injected i.p. into mice; FIG. 1B. The format is in vivo.
Test [2] deals with EAE in C57BL/6 mice. The test can be described thus: Experimental Autoimmune Encephalomyelitis (EAE) model. The note with it: for EAE-associated weight loss / clinical course of EAE: treated mice, FIG. 1C. The format is in vivo. The text has this: EAE is induced in C57BL/6 mice by immunization with an emulsion of MOG35-55 or MOG1-125 in complete Freund's adjuvant (CFA), followed by administration of pertussis toxin (PT) in PBS, first on the day of immunization and then again the following day.

Test [3] relates to PEC. The test can be described thus: IL-10 production by PEC in vitro. The test is classed as cell-based. The note with it: 24 h stimulation, FIG. 1A.
The target in test [4] is T1, human NOD1 (Homo sapiens, UniProt Q9Y239).
T1 construct: expressed in transfected cells; host or cells: HEK293
T1 sequence (Q9Y239 1-953): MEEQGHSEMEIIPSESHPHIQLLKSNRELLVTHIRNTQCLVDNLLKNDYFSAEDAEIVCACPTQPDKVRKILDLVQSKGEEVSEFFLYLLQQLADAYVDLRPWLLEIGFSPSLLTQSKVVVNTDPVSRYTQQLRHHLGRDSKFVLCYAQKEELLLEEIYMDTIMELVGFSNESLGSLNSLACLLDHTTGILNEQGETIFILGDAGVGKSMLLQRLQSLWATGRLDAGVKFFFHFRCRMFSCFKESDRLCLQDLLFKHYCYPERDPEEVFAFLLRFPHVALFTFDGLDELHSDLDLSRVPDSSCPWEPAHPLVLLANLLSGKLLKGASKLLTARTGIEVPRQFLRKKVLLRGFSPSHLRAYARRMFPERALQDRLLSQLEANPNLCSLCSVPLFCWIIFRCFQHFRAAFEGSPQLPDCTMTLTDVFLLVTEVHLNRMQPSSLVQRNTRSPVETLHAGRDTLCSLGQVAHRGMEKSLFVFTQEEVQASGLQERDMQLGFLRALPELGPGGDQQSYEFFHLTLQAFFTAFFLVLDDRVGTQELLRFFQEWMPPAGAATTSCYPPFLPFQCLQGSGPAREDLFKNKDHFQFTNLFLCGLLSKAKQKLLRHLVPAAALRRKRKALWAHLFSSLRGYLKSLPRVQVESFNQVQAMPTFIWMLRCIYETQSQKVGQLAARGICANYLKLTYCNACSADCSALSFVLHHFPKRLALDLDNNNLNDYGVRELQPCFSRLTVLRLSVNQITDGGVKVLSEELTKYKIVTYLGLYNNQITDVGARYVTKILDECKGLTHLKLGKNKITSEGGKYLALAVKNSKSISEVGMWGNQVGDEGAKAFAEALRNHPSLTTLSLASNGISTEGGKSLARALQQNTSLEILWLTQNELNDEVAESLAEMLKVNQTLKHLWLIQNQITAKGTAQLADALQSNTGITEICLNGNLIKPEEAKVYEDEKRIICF
In words: NOD1 functional agonist assay, 293hNOD1-SEAP reporter cells. The test is classed as cell-based. The note with it: 293hNOD1 cells, OD above 3*O.D of negative control. In short, it runs like this: (§1)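 Stably transfected HEK293 cells overexpressing human or murine NOD1 with an NF-κB/AP-1-inducible SEAP reporter; secreted SEAP detected colorimetrically, absorbance read at 620/655 nm. Value is the lowest concentration giving mean OD above 3× the endotoxin-free water negative control; parental 293 SEAP cells lacking NOD1 served as counter-control.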

In test [5] the target is T2, murine NOD1 (Mus musculus, UniProt Q8BHB0).
T2 construct: expressed in transfected cells; host or cells: HEK293
T2 sequence (Q8BHB0 1-953): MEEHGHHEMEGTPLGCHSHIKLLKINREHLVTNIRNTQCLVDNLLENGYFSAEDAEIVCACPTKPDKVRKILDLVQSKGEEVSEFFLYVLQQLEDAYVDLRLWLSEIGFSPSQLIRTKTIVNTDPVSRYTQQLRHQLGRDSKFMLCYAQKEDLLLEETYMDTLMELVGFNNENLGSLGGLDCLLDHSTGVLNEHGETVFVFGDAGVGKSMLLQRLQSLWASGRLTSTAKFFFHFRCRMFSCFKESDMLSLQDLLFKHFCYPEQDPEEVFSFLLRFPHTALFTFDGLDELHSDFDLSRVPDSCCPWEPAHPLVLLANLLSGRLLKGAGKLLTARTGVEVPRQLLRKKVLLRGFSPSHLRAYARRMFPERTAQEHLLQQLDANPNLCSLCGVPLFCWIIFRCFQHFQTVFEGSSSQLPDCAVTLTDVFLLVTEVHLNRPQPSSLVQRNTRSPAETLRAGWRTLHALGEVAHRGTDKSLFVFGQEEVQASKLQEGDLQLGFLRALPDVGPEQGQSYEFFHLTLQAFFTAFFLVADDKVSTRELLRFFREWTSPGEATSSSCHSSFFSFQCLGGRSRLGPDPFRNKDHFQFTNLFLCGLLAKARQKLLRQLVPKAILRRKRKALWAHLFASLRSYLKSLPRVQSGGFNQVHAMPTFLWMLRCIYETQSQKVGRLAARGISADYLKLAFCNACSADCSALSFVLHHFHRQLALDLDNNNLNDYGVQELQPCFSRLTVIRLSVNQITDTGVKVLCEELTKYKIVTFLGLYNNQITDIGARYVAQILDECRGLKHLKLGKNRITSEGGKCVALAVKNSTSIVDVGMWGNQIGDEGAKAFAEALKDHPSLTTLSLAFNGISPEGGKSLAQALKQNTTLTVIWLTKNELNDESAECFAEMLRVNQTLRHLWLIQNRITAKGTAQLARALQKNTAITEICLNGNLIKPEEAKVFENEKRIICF
In words: NOD1 functional agonist assay, 293mNOD1-SEAP reporter cells. The test is classed as cell-based. The note with it: 293mNOD1 cells, OD above 3*O.D of negative control. In short, it runs like this:
as §1

The test system of test [6] is DSS-induced colitis. The test can be described thus: Dextran Sulfate Sodium (DSS)-induced colitis mouse model. The test is classed as in vivo, mice. The note with it: 2% DSS in drinking water 7 days; 25 μg i.p. on days 0, 1, 2, 4 and 6; FIG. 3. How it is done: As provides in FIG. 3, mice were given water or 2% DSS in their drinking water for 7 days and were treated i.p. with either PBS, vehicle or 25 μg compound of Example 29 (Ex.29) on days 0, 1, 2, 4 and 6 of the experiment. (3A) Body weights were recorded daily. (3B) Mice were sacrificed on day 7 and colon lengths were measured (mean±SE; n=6). (3C) Total mRNA were extracted from the colons on day 7 and the relative expression (RE) of the M2 macrophage markers Relma, and the M1 macrophage markers Ptgs2 (Cox2) and Nos2 were quantified by qPCR (mean±SE; n=6). *, P<0.05; and **, P<0.01 versus DSS+vehicle treated mice.

Test [7] deals with DSS-induced inflammation in the colon. In words: DSS-induced inflammation in the colon model. The format is in vivo, mice. As to conditions: 2% DSS in drinking water 7 days; 25 μg i.p. on days 0, 1, 2, 4 and 6; FIG. 4. How it is done:
Mice were given water or 2% DSS in their drinking water for 7 days and were treated i.p. with either PBS, vehicle or 25 μg compound of Example 29 (Ex.29) on days 0, 1, 2, 4 and 6 of the experiment. Mice were sacrificed on day 7 and colon sections were prepared and stained with H&E.
Arrows indicate areas of severe inflammatory pathology.

The values below come from US20170210778A1, “NOVEL COMPOUNDS” (The Provost, Fellows, Foundation Scholars, and the other …, priority 2014, published 2017).

Structures are written as SMILES.

With `CCCCCCC(=O)N[C@H](CCC(=O)N[C@H](CSC[C@H](N)C(=O)O)C(=O)N[C@H](C)C(=O)O)C(=O)O` [Example 15, N^5-((S)-3-(((R)-2-amino-2-carboxyethyl)thio)-1-(((R)-1-carboxyethyl)amino)-1-oxopropan-2-yl)-N^2-heptanoyl-D-glutamine], the “numbers of LPM in the peritoneal cavity” value in test [1] is reported as “significantly increased”. In addition, in test [2] (WT mice, FIG. 2), the “EAE attenuation in WT mice” value was “significantly attenuated”. Moreover, the “onset of EAE” value in test [2] (treated IL-10−/− mice versus untreated WT or IL-10−/− mice, FIG. 2) was “slightly later onset”. Also, in test [2] (treated IL-10−/− mice, FIG. 2), the “mice that developed EAE” value is reported as 100%. Moreover, the “mice with any symptoms of EAE” value in test [2] (treated WT mice, FIG. 2) is “one of 6”. In addition, in test [2], the EAE-associated weight loss entry is given as “prevented associated weight loss” and the “clinical course of EAE” value is “significantly attenuated”. In test [3], the “production of IL-10 by PEC” value is “induced the production of significant concentrations of IL-10”. Further, the “hNod1: concentration where a significant mean optical density (OD) can be observed” value in test [4] worked out at 0.01 µg/mL. Also, the “mNod1: concentration where a significant mean optical density (OD) can be observed” value in test [5] came to 0.01 µg/mL.

For the compound `CCCCCCCCCCCCCC(=O)N[C@@H](C)C(=O)N[C@H](CCC(=O)N[C@H](CSC[C@H](N)C(=O)O)C(=O)NCC(=O)O)C(=O)O` [Example 29, N^5-((S)-3-(((R)-2-amino-2-carboxyethyl)thio)-1-((carboxymethyl)amino)-1-oxopropan-2-yl)-N^2-(tetradecanoyl-L-alanyl)-D-glutamine], the “numbers of LPM in the peritoneal cavity” value in test [1] is given as “significantly increased”. Besides, in test [2], the EAE-associated weight loss result was “prevented associated weight loss” and the “clinical course of EAE” value is given as “significantly attenuated”. The “protection against DSS-induced colitis” value in test [6] was “protects mice against DSS-induced colitis”. Further, the “production of IL-10 by PEC” value in test [3] was “induced the production of significant concentrations of IL-10”. The “hNod1: concentration where a significant mean optical density (OD) can be observed” value in test [4] stood at 0.0001 µg/mL. For the same compound, the “mNod1: concentration where a significant mean optical density (OD) can be observed” value in test [5] is 0.001 µg/mL. Besides, the “protection against DSS-induced inflammation in the colon” value in test [7] is “protects mice against DSS-induced inflammation in the colon”.
